By IC50 is commonly meant the concentration needed to halve the response being measured. As a reminder, the EC50 is the concentration that produces a half-maximal response.

From patent publication US12202844B2, “MAP4K1 inhibitors” (Blueprint Medicines Corporation, priority 2021, dated 2025) come the findings set out here.

The target of one assay is T1, MAP4K1 (HPK1) (Homo sapiens, UniProt Q92918).
T1 construct: purchased Invitrogen
The assay is described as follows: Inhibition of MAP4K1 biochemical enzymatic activity (EZReader 2 electrophoretic mobility shift). The following applies: HPK1 (Invitrogen), S6K2tide 1.5 μM, 120 min; ATP 26 μM or 1000 μM (not given). The procedure, abridged:
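Untreated enzyme (0.1-15 nM) was incubated with 1.5 μM fluorescent peptide and 20-1000 μM ATP (apparent Km or 1 mM) in HEPES pH 7.5, MgCl2, DTT, Brij 35 at 25° C. for 60-180 min, with 1% DMSO and a 10-point 4-fold compound series. After an EDTA stop, product/substrate peptide peak ratio was read by mobility shift.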
For orientation: Mobility shift assays separate free from complexed probe on a gel.

Assay [1] has as its system Primary T Cell (expanded CD3+ T cells). The experiment in a line: T cell enhancement of cytokines: IL2 measurement (HTRF) in stimulated expanded CD3+ T cells. It is filed as cell-based, human. The following applies: plate-bound anti-CD3 and soluble anti-CD28, 24 h, IL2 by HTRF, read-out: IL-2 Primary T Cell EC50. As for the experimental part: T cells are isolated from whole blood of healthy donors by immunomagnetic negative selection following manufacture's protocol (StemCell Technologies, human T cell isolation kit). Purity of isolated cells is assessed by flow cytometry and yields 95-98% CD3^+ T cells. For expansion of T cells, 1×10^6 cells/well are plated in serum free cell expansion media (ThermoFisher) containing 30 U of recombinant human IL2 (R&D) and stimulated with 25 ul of CD3/CD28 beads (Invitrogen) in 24 well plates for 3-4 days. T cells are then expanded in 175 cm flasks and maintained at a cell density of 1 to 2.5×10^6 cells/ml days by addition of ⅔ of fresh media every 2-3 days. After 10-14 days, cells are frozen in BamBanker freezing media (Thermo) and stored in liquid nitrogen.
For IL2 measurement, expanded CD3^+ T cells are dispensed at 100K cells/well (cultured in X-VIVO 10 Serum-free media) and are stimulated with plate-bound anti-CD3 and soluble anti-CD28 in the presence of vehicle or compound of the disclosure at various concentrations for 24 h. As outlined in the manufacturer's protocol (Cisbio), 16 μL of conditioned media is transferred to a white 384-well low volume plate. Following a 24 h incubation with the anti-IL2 antibodies, the homogenous time resolved fluorescence (HTRF) is measured.

Each structure is given as a SMILES string. Where two headings read alike, the source gives them in different places.

T1 sequence (Q92918 whole entry): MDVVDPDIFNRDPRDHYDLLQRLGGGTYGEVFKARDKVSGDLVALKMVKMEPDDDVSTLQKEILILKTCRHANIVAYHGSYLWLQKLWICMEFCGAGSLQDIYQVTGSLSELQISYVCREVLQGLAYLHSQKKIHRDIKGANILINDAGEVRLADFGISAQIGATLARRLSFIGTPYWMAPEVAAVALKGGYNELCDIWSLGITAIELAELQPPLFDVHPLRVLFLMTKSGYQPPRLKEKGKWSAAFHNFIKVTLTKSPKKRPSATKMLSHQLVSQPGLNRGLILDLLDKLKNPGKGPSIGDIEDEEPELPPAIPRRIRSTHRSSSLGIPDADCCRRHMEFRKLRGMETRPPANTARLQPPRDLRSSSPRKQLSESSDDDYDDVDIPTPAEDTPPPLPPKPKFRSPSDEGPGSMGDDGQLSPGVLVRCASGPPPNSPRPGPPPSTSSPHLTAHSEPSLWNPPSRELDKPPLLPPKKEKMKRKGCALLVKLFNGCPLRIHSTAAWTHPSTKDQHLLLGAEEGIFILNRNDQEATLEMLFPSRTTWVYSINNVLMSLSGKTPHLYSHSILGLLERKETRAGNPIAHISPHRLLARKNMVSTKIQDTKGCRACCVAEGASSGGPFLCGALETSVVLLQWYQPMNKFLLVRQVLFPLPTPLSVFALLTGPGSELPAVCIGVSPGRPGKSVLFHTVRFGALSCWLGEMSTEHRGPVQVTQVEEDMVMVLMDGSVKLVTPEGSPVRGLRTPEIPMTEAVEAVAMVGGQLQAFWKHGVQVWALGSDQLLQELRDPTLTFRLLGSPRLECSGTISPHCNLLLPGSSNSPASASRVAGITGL

In the case of `CC[C@@](C)(N)c1cnc(O[C@H](C)C[C@@H](C)S(C)(=O)=O)c2cnc(Nc3ccc4c(n3)C3(CC3)[C@@H](C)OC4=O)cc12` (single isomer, unassigned) [Compound 104], at MAP4K1 (HPK1), the half-inhibitory concentration (IC50) was determined as 0.17 nM. Also, the EC50 in assay [1] (Homo sapiens, T-cell, 24 h) is 10 nM.
`C[C@H](C[C@@H](C)S(C)(=O)=O)Oc1ncc([C@H](N)C2CC2)c2cc(Nc3ccc4c(n3)[C@@H](C)C(C)(C)OC4=O)ncc12` (single isomer, unassigned) [Compound 110]: the IC50 at MAP4K1 (HPK1) was found to be 0.22 nM. In assay [1] (Homo sapiens, T-cell, 24 h), the 50% effective concentration (EC50) stood at 36 nM.
The matching figures for `CCS(=O)(=O)C[C@H]1C[C@@H](Oc2ncc(C(C)(C)N)c3cc(Nc4ccc5c(n4)[C@@H](C)C(C)(C)OC5=O)ncc23)C1` (single isomer, unassigned) [Compound 112]: 0.13 nM and 25 nM.
Regarding `CCC[C@@H](N)c1cnc(O[C@H]2C[C@@H](S(=O)(=O)CC)C2)c2cnc(Nc3ccc4c(n3)[C@@H](C)C(C)(C)OC4=O)cc12` (single isomer, unassigned) [Compound 115], the concentration for half-maximal inhibition (IC50) at MAP4K1 (HPK1) is 0.33 nM. Also, in assay [1] (Homo sapiens, T-cell, 24 h), the EC50 came to 59 nM.
With `CCC[C@@](C)(N)c1cnc(O[C@H](C)CCS(C)(=O)=O)c2cnc(Nc3ccc4c(n3)[C@@H](C)C(C)(C)OC4=O)cc12` (single isomer, unassigned) [Compound 126], the IC50 on MAP4K1 (HPK1) turned out to be 0.17 nM. Further, the EC50 in assay [1] (Homo sapiens, T-cell, 24 h) was determined as 21 nM.
For `CC[C@@](C)(N)c1cnc(O[C@H](C)CCS(=O)(=O)CC)c2cnc(Nc3ccc4c(n3)[C@@H](C)C(C)(C)OC4=O)cc12` (single isomer, unassigned) [Compound 133], in that order: 0.2 nM and 23 nM.
For `CCS(=O)(=O)[C@H](C)C[C@@H](C)Oc1ncc([C@H](N)C2CC2)c2cc(Nc3ccc4c(n3)[C@@H](C)C(C)(C)OC4=O)ncc12` (single isomer, unassigned) [Compound 138], in that order: 0.3 nM and 38 nM.
With `CC[C@@](C)(N)c1cnc(O[C@@H](C)CCS(C)(=O)=O)c2cnc(Nc3ccc4c(n3)[C@@H](C)[C@@H](C)OC4=O)cc12` (single isomer, unassigned) [Compound 148], the IC50 on MAP4K1 (HPK1) was 0.57 nM. The half-maximal effective concentration (EC50) in assay [1] (Homo sapiens, T-cell, 24 h) stood at 26 nM.
The matching figures for `CC[C@@](C)(N)c1cnc(O[C@@H]2C[C@H](S(C)(=O)=O)[C@H]2C)c2cnc(Nc3ccc4c(n3)[C@@H](C)[C@H](C)OC4=O)cc12` (single isomer, unassigned) [Compound 150]: 0.32 nM and 14 nM.
In the case of `CC[C@@](C)(N)c1cnc(O[C@@H]2C[C@H](S(C)(=O)=O)[C@H]2C)c2cnc(Nc3ccc4c(n3)[C@@H](C)[C@H](C)OC4=O)cc12` (single isomer, unassigned) [Compound 151], the concentration for half-maximal inhibition (IC50) on MAP4K1 (HPK1) is 0.16 nM. Also, the EC50 in assay [1] is 9 nM.
`CC[C@@](C)(N)c1cnc(O[C@H](C)C[C@@H](C)S(C)(=O)=O)c2cnc(Nc3ccc4c(n3)[C@@H](C)[C@@H](C)OC4=O)cc12` (single isomer, unassigned) [Compound 152]: the half-maximal inhibitory concentration (IC50) on MAP4K1 (HPK1) amounted to 0.29 nM. In addition, the EC50 in assay [1] (Homo sapiens, T-cell, 24 h) is 11 nM.
The matching figures for `CC[C@@](C)(N)c1cnc(O[C@H](C)CCS(C)(=O)=O)c2cnc(Nc3ccc4c(n3)[C@@H](C)[C@@H](C)OC4=O)cc12` (single isomer, unassigned) [Compound 153]: 0.27 nM and 25 nM.
The matching figures for `C[C@@H]1OC(=O)c2ccc(Nc3cc4c(C(C)(C)N)cnc(O[C@@H](C)C[C@@H]5CCCS5(=O)=O)c4cn3)nc2[C@H]1C` (single isomer, unassigned) [Compound 155]: 0.37 nM and 17 nM.
For `C[C@@H]1c2nc(Nc3cc4c(C(C)(C)N)cnc(OCCC[S@](C)(=N)=O)c4cn3)ccc2C(=O)OC1(C)C` (single isomer, unassigned) [Compound 168], in that order: 0.26 nM and 35 nM.
`CC[C@@H](N)c1cnc(O[C@H]2C[C@@H](S(C)(=O)=O)C2)c2cnc(Nc3ccc4c(n3)[C@@H](C)C(C)(C)OC4=O)cc12` (single isomer, unassigned) [Compound 176]: the IC50 on MAP4K1 (HPK1) was determined as 0.23 nM. In addition, the 50% effective concentration (EC50) in assay [1] (Homo sapiens, T-cell, 24 h) was determined as 69 nM.
For `CC[C@@](C)(N)c1cnc(O[C@H](C)C[C@@H](C)[S@](C)(=N)=O)c2cnc(Nc3ccc4c(n3)C3(CC3)[C@@H](C)OC4=O)cc12` (single isomer, unassigned) [Compound 181], in that order: 0.18 nM and 85 nM.
For the molecule `CC[C@@](C)(N)c1cnc(O[C@H](C)C[C@@H](C)[S@@](C)(=N)=O)c2cnc(Nc3ccc4c(n3)C(C)(C)[C@@H](C)OC4=O)cc12` (single isomer, unassigned) [Compound 182], the IC50 at MAP4K1 (HPK1) turned out to be 0.16 nM. For the same molecule, the 50% effective concentration (EC50) in assay [1] came out at 21 nM.
As for `CC[C@@](C)(N)c1cnc(O[C@H](C)C[C@@H](C)[S@@](C)(=N)=O)c2cnc(Nc3ccc4c(n3)C(C)(C)[C@@H](C)OC4=O)cc12` (single isomer, unassigned) [Compound 183], the IC50 at MAP4K1 (HPK1) is 0.16 nM. Besides, the EC50 in assay [1] came out at 43 nM.
As for `CC[C@@](C)(N)c1cnc(O[C@H](C)C[C@@H](C)S(C)(=O)=O)c2cnc(Nc3ccc4c(n3)C(C)(C)[C@H](C)OC4=O)cc12` (single isomer, unassigned) [Compound 186], the IC50 at MAP4K1 (HPK1) is 0.15 nM. Further, the EC50 in assay [1] (Homo sapiens, T-cell, 24 h) was determined as 15 nM.
The matching figures for `C[C@@H]1c2nc(Nc3cc4c(C(C)(C)N)cnc(OC5CS(=O)(=O)C5)c4cn3)ccc2C(=O)OC1(C)C` [Compound 3]: 0.12 nM and 39 nM.
The matching figures for `C[C@@H]1OC(=O)c2cc(Nc3cncc4c(OCCCS(C)(=O)=O)ncc(C(C)(C)N)c34)cnc2[C@H]1C` [Compound 7]: 0.28 nM and 11 nM.
For the molecule `CC(C)(N)c1cnc(O[C@H]2C[C@@H](S(C)(=O)=O)C2)c2cnc(Nc3ccc4c(n3)C(C)(C)COC4=O)cc12` [Compound 11], on MAP4K1 (HPK1), the IC50 amounted to 0.29 nM. Also, the EC50 in assay [1] (Homo sapiens, T-cell, 24 h) was 39 nM.
For `C[C@@H]1OC(=O)c2ccc(Nc3cc4c(C(C)(C)N)cnc(O[C@H]5C[C@@H](S(C)(=O)=O)C5)c4cn3)nc2[C@H]1C` [Compound 13], in that order: 0.12 nM and 15 nM.
For the molecule `C[C@@H]1OC(=O)c2ccc(Nc3cc4c(C(C)(C)N)cnc(OC5CN(S(C)(=O)=O)C5)c4cn3)nc2[C@H]1C` [Compound 15], on MAP4K1 (HPK1), the concentration for half-maximal inhibition (IC50) turned out to be 0.1 nM. For the same molecule, the EC50 in assay [1] (Homo sapiens, T-cell, 24 h) came out at 13 nM.
The matching figures for `C[C@@H]1c2nc(Nc3cc4c(C(C)(C)N)ccc(O[C@H]5C[C@@H](S(C)(=O)=O)C5)c4cn3)ccc2C(=O)OC1(C)C` [Compound 27]: 0.08 nM and 15 nM.
As for `C[C@@H]1c2nc(Nc3cc4c(C(C)(C)N)cnc(N[C@H]5C[C@@H](S(C)(=O)=O)C5)c4cn3)ccc2C(=O)OC1(C)C` [Compound 28], the 50% inhibitory concentration (IC50) at MAP4K1 (HPK1) came out at 0.14 nM. For the same molecule, in assay [1] (Homo sapiens, T-cell, 24 h), the concentration giving a half-maximal response (EC50) was determined as 250 nM.
The matching figures for `CC[C@@](C)(N)c1cnc(O[C@H]2C[C@@H](S(C)(=O)=O)C2)c2cnc(Nc3ccc4c(n3)[C@@H](C)[C@H](C)OC4=O)cc12` [Compound 38]: 0.12 nM and 5 nM.
